Values after ≈ are worked out from the molar mass of the structure shown. Where two headings read alike, the source gives them in different places.
Key:
[1] = system: resting boar spermatozoa; assay: Motility inhibition of resting boar spermatozoa (BSMIR); format: cell-based; conditions: resting boar sperm, 24 °C, 2 days
Protocol: (§1) Three criteria were assessed: (1) the motility inhibition of resting boar spermatozoa (BSMIR); (2) the change in mitochondrial membrane potential (ΔΨ) observed using the potentiometric dye JC-1; and (3) the plasma membrane integrity (SMIDR) observed using the viability stain calcein-AM + propidium iodide (PI). […] By contrast, the EC50 concentrations in the SMIDR assays, which measured the lethal damages in plasma membrane after incubation for two days, were >50 times higher (Figure 5 and Table 3).
The procedure for the BSMIR assay measuring sublethal toxicity as motility inhibition, i.e., inability to respond to induction of motility in resting sperm cells is described below: The ethanol solutions (0.5–10 μL) were dispensed in 2000 μL of extended boar semen (Figen Ltd., Tuomikylä, Finland, density of 27 × 10^6 sperms mL^−1) incubated at 24 °C, and motility of the sperms was inspected in the phase-contrast microscope (400× magnification) with a heated stage, (Olympus CKX41, Tokyo, Japan; magnification 400×) and an image recording software (Cellsense® standard version 11.0.06, Olympus Soft Imaging Solutions GmbH, Münster, Germany, 2012) as described previously. […] The EC50 was calculated from the equation of the straight line between EC50-40 and EC80-90: Y = −ΔY/ΔX × X + C where Y is the motility closest to 50% of the motility of the solvent control, X is the EC50 concentration and C is a constant between 100% and 60%. All tests were run in triplicates and differences between replicate tests were within one dilution step (2-fold). The sperm assays were calibrated with triclosan and valinomycin.

[2] = system: resting boar spermatozoa; assay: Mitochondrial membrane potential (ΔΨm) assay with JC-1 in resting spermatozoa; format: cell-based
Protocol: as §1
(§2) The boar sperm cells exposed for 2 days to commercial chaetoglobosin A and the crude extract of MTAV35 and MTAV37 were double-stained with the viability stains PI + calcein–AM, the SMIDR assay, as described earlier. The staining protocol was as follows: 200 μL of extended boar semen containing 27 × 10^6 sperm cells mL^−1 was mixed with 200 μL PBS containing 3 μg mL^−1 calcein-AM and 10 μg mL^−1 PI. The ΔΨm assay monitored the mitochondrial membrane potential changes (ΔΨm) by staining with the lipophilic potentiometric dye JC-1 as described by Mikkola et al. (2015). For the staining with JC-1 (35 µg mL^−1), 200 µL of the sperm cells were shaken and incubated at 37 °C for 5 min. After staining, the cells exposed in the SMIDR and the ΔΨm assays were inspected with fluorescence microscope using 400× magnification (Nikon Eclipse E600, Nikon Corporation, Tokyo Japan) with filters BP 450–490 nm/LP 520. The calcein–AM-stained cells with intact plasma membranes produced green fluorescence, whereas the PI-dyed cells with damaged plasma membranes produced red fluorescence. In JC-1 stained sperm cells, mitochondria with high membrane potential emitted yellow fluorescence, whereas depolarized mitochondria fluoresced green.
(§3) The EC50 concentration in these microscopic assays was defined as the lowest concentration where the ratio of cells similar to those in the solvent control was less than 50%. This EC50 fitted between EC90 and EC10 observed in the microscope calculating ca. 100–120 sperm cells from three microscopic fields. The maximal difference between four parallel tests in each of the two methods was one dilution step. The assays were calibrated with triclosan.

[3] = system: resting PK-15 cells; assay: Mitochondrial damage test: accelerated glucose consumption and extracellular acidosis; format: cell-based, porcine
Protocol: The mitochondria were depolarized in sperm cells exposed to sublethal concentrations of chaetoglobosin A (Figure 5) and to the chaetoglobosin-containing extracts (Table 3). This observation aroused the suspicion regarding mitochondrial toxicity. The mitochondrial toxicity of the extracts containing chaetoglobosin was assessed by measuring the accelerated glucose consumption in resting PK-15 cells. […] By contrast, the positive controls for mitochondrial toxicity—enniatin B, moniliformin and valinomycin at sublethal concentrations of 1.5, 4 and 5 ng mL^−1, respectively—promoted the acceleration of glycolysis.
The test for mitochondrial damage as indicated by accelerated glucose consumption and extracellular acidosis was described earlier. The PK-15 cells were grown in 8-well flat-bottom chamber glass slides, seeded to a density of 4 × 10^4 cells mL^−1, in the respective medium for 48 h. The twofold serially diluted test substances or the vehicle only was dispensed into the wells. The glucose content of the wells was measured by using a glucose meter (Precision Xceed; Abbott Diabetes Care Ltd., Berkshire, United Kingdom). In wells that received nothing or the vehicle only, the glucose concentration decreased from an initial concentration (0 h) of 12 to 6 mM (24 h), but the pH remained as pH of 7.2. A glucose concentration after 24 h of ≤3 mM indicated excessive glucose consumption. Prior to the measurement of the pH, the chamber slides were transferred into ambient air for 1 h to allow CO2 to evaporate. A pH drop of 0.5 units in the toxin-exposed well compared to the vehicle only was considered proof of acidosis. Mitochondrial depolarization (ΔΨm assay) was read by a fluorescence microscope after 26 h of exposure to the toxicants from the monolayers double stained with the membrane potential-responsive fluorogenic dye JC-1 and with propidium iodide to assess the relaxing of the plasma membrane permeability barrier, similar to what was reported previously for sperm cells (27).

[4] = system: boar spermatozoa; assay: cells; format: cell-based; conditions: Spermatozoa; motile boar sperm, 2 h, 37 °C; read-out: EC50 SMIDM Boar Sperm 2 h
[5] = system: boar spermatozoa; assay: cells; format: cell-based; conditions: Spermatozoa, 20 min; motile boar sperm, 20 min, 37 °C; read-out: EC50 BSMIM Boar Sperm 20 min
[6] = system: resting boar spermatozoa; assay: Plasma membrane integrity of resting spermatozoa (SMIDR), calcein-AM + PI; format: cell-based; conditions: Spermatozoa, 48 h; resting boar sperm, 24 °C, 2 days; read-out: EC50 Lethal Toxicity SMIDR 2 days
Protocol: as §1, with “The long-term effects of exposure to chaetoglobosin A and to the chaetoglobosin-containing extracts of the Ch. globosum MTAV35 and MTAV37 strains were measured in resting sperm cells exposed at 24 °C for two days. Three” for “Three”
as §2, §3

## C/C1=C\[C@@H](C)C/C=C/[C@H]2[C@@H]3O[C@]3(C)[C@@H](C)[C@H]3[C@H](Cc4c[nH]c5ccccc45)NC(=O)[C@]32C(=O)/C=C/C(=O)[C@@H]1O [Chaetoglobosin A, chaetoglobosin A]
[1]
  EC50 Sublethal Toxicity BSMIR 2 days: 1 µg/mL (≈ 1.89 µM)
[2]; Spermatozoa, 48 h, read-out: EC50 Sublethal Toxicity Depletion of ΔΨm 2 days, resting boar sperm, JC-1, 2 days
  EC50: 3 to 4 µg/mL (≈ 5.67 to 7.57 µM)
[2]; resting boar sperm, JC-1, 2 days
  EC50 Sublethal Toxicity Depletion of ΔΨm 2 days: 2 µg/mL
[3]; PK-15, 1 day
  EC50 Sublethal Toxicity Acceleration of glycolysis 1 day: None
[3]; PK-15, 2 days
  EC50 Sublethal Toxicity Acidosis 2 days: None
[4]
  EC50: 12 µg/mL (≈ 22.7 µM)
[5]
  EC50: 1 µg/mL (≈ 1.89 µM)
[6]
  CC50: > 20 µg/mL
